From the METLIN SMRT retention time set (Domingo-Almenara et al. 2019) come the findings set out here.

A short description of the data set: gradient 5% acetonitrile 3 min, to 50% in 2 min, to 85% in 15 min, held 3 min, 100 µL/min. The settings on record: column: Zorbax Extend-C18 2.1 x 50 mm; eluents: water / acetonitrile, 0.1% formic acid. In outline:
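Values are retention times taken from adduct peaks that software picked and an analyst inspected. The pure standards were run as mixtures of ~100 molecules on HPLC linked to a quadrupole time-of-flight mass spectrometer, in positive and negative ionization mode. A Zorbax Extend-C18 column (2.1 × 50 mm, 1.8 μm) was used at 100 μL/min with water and acetonitrile, each including 0.1% formic acid.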
In turn, `COc1cc(C2c3c(-c4ccc(C)cc4)n[nH]c3C(=O)N2C)ccc1O` (stereo not given) returned an RP-LC retention time of 692 s.

The compound `COc1ccccc1OCC1c2ccsc2CCN1C(=O)CN(CC1CC1)C(=O)NC(C)C` (stereo not given) showed an RP-LC retention time of 919 s.

`Cc1ccc(NC(=O)N2CCC(N3CCN(Cc4ccc(F)cc4)C(=O)C3=O)CC2)cc1`: the RP-LC retention time was determined as 754 s.

`CCCN(CCC)CCCNC(=O)C1CCCN(c2nnc(N3CCCC3=O)s2)C1` (stereo not given) displayed an RP-LC retention time of 584 s.

With `O=C(CN1C(=O)CSc2cccn2-c2ccccc21)NCc1ccc(F)cc1`, the RP-LC retention time stood at 866 s.

Take `COc1cccc(C2Cn3nnc(-c4nc(-c5ccccc5OC)no4)c3CO2)c1` (stereo not given): the RP-LC retention time stood at 1010 s.

Compound `CCN(CC)S(=O)(=O)c1ccc2c(c1)N(CC(=O)N(C)Cc1ccco1)C(=O)C1CCCCN21` (stereo not given) gave an RP-LC retention time of 959 s.

The compound `COc1ccc(OCC(=O)Nc2nc(-c3ccccc3)cs2)cc1` registered an RP-LC retention time of 1050 s.

On to `O=C(NC1CCc2ccccc21)C1CCN(Cc2noc(-c3ccc(F)cc3)n2)CC1` (stereo not given), for which the RP-LC retention time was found to be 683 s.

In turn, `O=C(NCc1cccs1)C1CCCN(c2nc3ccsc3c(=O)n2-c2ccc(F)cc2)C1` (stereo not given) gave an RP-LC retention time of 843 s.

Take `O=C(Nc1ccc(F)cc1)C1CC(=O)N(CCc2c[nH]c3ccc(Cl)cc23)C1` (stereo not given): the RP-LC retention time came to 871 s.

As for `O=C(Cn1nc2c3cc(-c4ccc(F)cc4)nn3ccn2c1=O)NCc1ccco1`, the RP-LC retention time was determined as 796 s.

Turning to `CCOC(=O)c1c(S(=O)(=O)N2CCC(C(=O)Nc3ccccn3)CC2)c(C)n(C)c1C`, the RP-LC retention time amounted to 678 s.

The compound `Cc1noc(C)c1C(=O)N(C)C1CCc2nnc(C)n2CC1` (stereo not given) displayed an RP-LC retention time of 552 s.

In turn, `CCOC(=O)c1c(C)oc2nc(C)nc(NCc3ccc4c(c3)OCO4)c12` returned an RP-LC retention time of 1100 s.

`CC(=O)N1CCc2ccccc2C1C(=O)NCc1ccc(C(F)(F)F)cc1` (stereo not given) gave an RP-LC retention time of 838 s.

`CCOC(=O)c1ccc(NC(=O)Cn2c(=O)c(CCC(=O)NC)nc3ccccc32)cc1` displayed an RP-LC retention time of 1260 s.

Take `CCCn1cc(S(=O)(=O)Nc2ccc(C)cc2F)c2cccnc21`: the RP-LC retention time turned out to be 936 s.

Consider `O=C1CCCc2nc(N3CCN(c4ncccn4)CC3)nc(Nc3ccccc3)c21`, for which the RP-LC retention time is 1110 s.

Turning to `CCNC(=O)Nc1ccc(OCC(=O)NC(C)c2ccc(OC)c(OC)c2)nc1` (stereo not given), the RP-LC retention time amounted to 644 s.

`Cc1cccc(NC(=O)N2CCC(CCN)CC2)c1` gave an RP-LC retention time of 586 s.

In the case of `CC(C)CCNC(=O)c1cn(C)nc1S(=O)(=O)N1CCSCC1`, the RP-LC retention time stood at 900 s.

The compound `O=S(=O)(Nc1ccc(-c2ccc(N3CCCC3)nn2)cc1)c1ccc(Cl)s1` came in with an RP-LC retention time of 594 s.

Regarding `COc1ccc(S(=O)(=O)CCc2noc(C(=O)N3CCC4(CC3)OCCO4)n2)cc1`, the RP-LC retention time came out at 763 s.

The compound `O=C(Nc1ccc(F)cc1)C(=O)c1c[nH]c2ccccc12` returned an RP-LC retention time of 918 s.

`O=C(c1c(F)cccc1F)N1CCc2nc(-c3ccc(Cl)cc3)ncc2C1` gave an RP-LC retention time of 1100 s.

Compound `CCn1ccc2sc(C)c(C(=O)NCc3ccco3)c2c1=O` showed an RP-LC retention time of 723 s.

Take `O=C(Nc1cccc(NC(=O)c2cccc(O)c2O)c1)c1cccc(O)c1O`: the RP-LC retention time was determined as 765 s.

`Cc1csc(-c2cc(S(=O)(=O)Nc3cccc(C)c3C)c(C)s2)n1` displayed an RP-LC retention time of 1090 s.

With `O=C(Nc1ccccc1C(F)(F)F)NC1CCN(c2ccc(F)cc2)C1=O` (stereo not given), the RP-LC retention time was found to be 850 s.

On to `O=C(c1ccc(Cl)s1)N1CCN(S(=O)(=O)C2CC2)CC1`, for which the RP-LC retention time is 743 s.

Compound `CC(C)COc1ccc(S(=O)(=O)N2CCOC(c3ccccc3)C2)cc1` (stereo not given) returned an RP-LC retention time of 560 s.

As to `Cc1nc(C)c(C(=O)NCC23CCC=C2N(CC2CC2)C(=O)CC3)s1` (stereo not given), the RP-LC retention time came to 757 s.

`O=C(Cc1csc2nc(-c3ccccc3)cn12)NCCc1ccc(Cl)cc1` returned an RP-LC retention time of 806 s.

As to `N#CC1=CN(c2ccc(C(F)(F)F)cc2)c2ccccc2S1(=O)=O`, the RP-LC retention time is 963 s.

In turn, `CCOC(=O)c1cc(S(=O)(=O)N2CCCC2C(=O)N(CC)c2cccc(C)c2)cn1C` (stereo not given) displayed an RP-LC retention time of 943 s.

The compound `O=C(Nc1cccc(C(=O)N2CCN(c3ccc(Cl)cc3)CC2)c1)C1=CSCCO1` displayed an RP-LC retention time of 955 s.

Regarding `COc1ccc(S(=O)(=O)N2CCc3nn(CC4CC4)c(=O)n3CC2)cc1`, the RP-LC retention time was found to be 744 s.

Regarding `CCCn1cc(-c2nc(-c3cc(OC)c(OC)c(OC)c3)no2)c(=O)c2ccccc21`, the RP-LC retention time came to 798 s.

`Cc1cc(N2CCN(C(=O)c3ccccc3)CC2)nc(N2CCOCC2)n1` displayed an RP-LC retention time of 612 s.

In turn, `CC(=O)N1CCC(C(=O)NCc2ccccc2)(N(C(=O)c2ccc(C)cc2)C2CCCC2)CC1` returned an RP-LC retention time of 942 s.

`Cc1cc(NC(=O)CSc2ccc3nnc(-c4cccs4)n3n2)no1` yielded an RP-LC retention time of 620 s.

For the compound `Cc1cc(F)ccc1NC(=O)C1CCCN(c2cnc3nccnc3c2)C1` (stereo not given), the RP-LC retention time worked out at 711 s.

The compound `COc1ccc2c(c1)OC1(C)CC2C(S(=O)(=O)c2ccc(C(C)C)cc2)C(=O)N1C` (stereo not given) came in with an RP-LC retention time of 1120 s.

In turn, `CN(CC1CCOCC1)S(=O)(=O)c1cccc(F)c1` had an RP-LC retention time of 811 s.

As to `Cc1ccc(C2=NC3(CCN(C(=O)c4cnccn4)CC3)ON2)cc1`, the RP-LC retention time is 680 s.

`COC(=O)CCNC(=O)C1c2ccccc2C(=O)N(C2CCCCC2)C12CCCCC2` (stereo not given): the RP-LC retention time is 1010 s.

The compound `O=C(c1ccc(Cl)cc1)N1CCc2cc(CNS(=O)(=O)Cc3ccccc3)ccc21` returned an RP-LC retention time of 981 s.

Compound `O=C(NCc1ccccn1)c1cc(-c2cccnc2)nc2ccc(Cl)cc12` had an RP-LC retention time of 642 s.

Regarding `CC(C)(C)NC(=O)N1CCC(CNC(=O)C(=O)Nc2cccc(N3CCCC3=O)c2)CC1`, the RP-LC retention time turned out to be 683 s.

Regarding `COc1cc(NC(=O)c2sc(-n3cccc3)nc2C(C)C)cc(OC)c1`, the RP-LC retention time turned out to be 1210 s.

Consider `Cn1cccc1C(=O)N1CC(Oc2cccc(-c3nc(-c4ccccc4)no3)c2)C1`, for which the RP-LC retention time was 1220 s.

Compound `O=C(CCn1c(=O)sc2ccccc21)N(Cc1ccccc1)Cc1ccccc1` displayed an RP-LC retention time of 1040 s.

In turn, `CCOC(=O)c1ccc(NC(=O)N2CCc3cn(CC)c4cccc(c34)C2)cc1` came in with an RP-LC retention time of 1150 s.

On to `COc1ccc(NC(=O)COc2ccccc2)c2ccccc12`, for which the RP-LC retention time was determined as 893 s.

`O=C(NCc1cc(F)ccc1F)C1CCCN(c2cnc3nccnc3c2)C1` (stereo not given) showed an RP-LC retention time of 715 s.

In turn, `NC(=O)c1nnsc1-c1ccc(-c2snnc2C(N)=O)cc1` came in with an RP-LC retention time of 694 s.

With `O=C(CCSc1ccc(F)cc1)Nc1nnc(-c2ccco2)o1`, the RP-LC retention time turned out to be 729 s.

In the case of `O=C(C1CCN(S(=O)(=O)c2ccc3[nH]c(=O)ccc3c2)CC1)N1CCOCC1`, the RP-LC retention time turned out to be 613 s.

In turn, `O=C(NC1CCCCCC1)C1CCN(c2cncnc2N2CCOCC2)CC1` had an RP-LC retention time of 635 s.

The compound `O=C(Cc1cccs1)Nc1cc(F)c2nc(N3CCOCC3)ccc2c1` registered an RP-LC retention time of 793 s.

In turn, `CCOc1ccc(NC(=O)c2cnc(N3CCSCC3)nc2N)cc1` gave an RP-LC retention time of 712 s.

Turning to `CCC1(O)CCC12CCN(C(=O)CC1CCCC1)CC2` (stereo not given), the RP-LC retention time is 830 s.

Compound `CCN1CCN(C(=O)C2CCN(c3ccc(Sc4ccc(C(C)C)cc4)nn3)CC2)CC1` gave an RP-LC retention time of 659 s.

`CCc1ccc(N2CCC(C(=O)NCCc3c[nH]c4ccc(Cl)cc34)C2=O)cc1` (stereo not given) displayed an RP-LC retention time of 1020 s.

On to `O=C(c1ccco1)N1CCC(OC2CCN(Cc3ccccc3)CC2)CC1`, for which the RP-LC retention time was 595 s.

Compound `Cc1cccc(N2C(=O)CN(S(C)(=O)=O)CC2(C)C(=O)NCc2ccc(Cl)cc2)c1C` (stereo not given) gave an RP-LC retention time of 903 s.

`O=C(CCc1nc2ccccc2n(CC(=O)Nc2cc(F)ccc2F)c1=O)NCc1ccccc1` had an RP-LC retention time of 884 s.

`O=C(Nc1ccc(Cl)cc1F)c1cnc(-c2ccccc2)nc1-c1ccncc1` returned an RP-LC retention time of 982 s.

For the compound `Cc1cc(C)c(S(=O)(=O)N2CCCCC2)c(C)c1[N+](=O)[O-]`, the RP-LC retention time was 1040 s.

Compound `CCCN(CC1CCOC1)C(=O)C1CCCCC1` (stereo not given) gave an RP-LC retention time of 827 s.

`CCOc1cc(=O)n2c(c1C(=O)Nc1ccc(Cl)cc1)CCCC2` showed an RP-LC retention time of 769 s.

`Cc1ccccc1Cc1c(C)nc2nc(SCC(=O)NCCN3CCOCC3)nn2c1C` yielded an RP-LC retention time of 655 s.

`CC(C)NC(=O)c1nccnc1NC(=O)c1ccccc1` gave an RP-LC retention time of 817 s.

For the compound `O=C1CC(c2ccc(C(=O)O)cc2)c2scc(-c3ccccc3F)c2N1` (stereo not given), the RP-LC retention time was determined as 804 s.

For the compound `Cc1ccc(CNC(=O)NCCC2CCN(S(=O)(=O)c3ccccc3)CC2)cc1`, the RP-LC retention time stood at 877 s.

`COC(=O)c1ccc(NC(=O)N2[C@H]3CC[C@@H]2c2cnc(-c4ccc(F)cc4)nc2C3)cc1` registered an RP-LC retention time of 993 s.

Compound `Cn1nc2ccc(S(=O)(=O)N3CCOCC3)cn2c1=O` displayed an RP-LC retention time of 611 s.

The compound `CCOc1ccc(OCC)c(NC(=O)C2CCCN(C(=O)c3cc(-c4ccccn4)n[nH]3)C2)c1` (stereo not given) had an RP-LC retention time of 775 s.

With `COc1ccc(C2(C(=O)N3CCCC(c4nnnn4C)C3)CC2)cc1` (stereo not given), the RP-LC retention time was 706 s.
